Laboratory results as given in patent US9123099B2, “Systems with workstations and circuits for generating images of global injury” (Wake Forest University Health Sciences, priority 2004, dated 2015).

What was measured:
[1] = test system: left ventricle myocardium; assay: Cross-sectional delayed enhancement MRI/CMR study of gadolinium contrast uptake, voxel intensity and auto-correlation; assay type: in vivo, human
Source text: In particular embodiments of the present invention, a patient may be taken to the MRI suite where he/she will be placed supine on the MRI table and ECG leads and respiratory gating bellows applied. MRI scans may be performed on, for example, a 1.5 Tesla GE CVi scanner with a phased array surface coil applied around the chest to optimize signal to noise ratio, or another MRI scanner. Images may be acquired using a fast gradient echo technique, with the repetition time (TR) and echo time (TE) based on the R-R interval of the subject. Multislice coronal, gradient echo sequences may be used to obtain scout images of the chest and locate the left ventricle. Subjects may be injected intravenously with a gadolinium contrast agent (0.2 mmole/kg Gadoteridol (Prohance, Bracco Diagnostics, Princeton, N.J.)). The time of this injection may be recorded.
However, this method may not be as well suited for a process that causes necrosis to susceptible tissue throughout the LV myocardium in a randomly distributed pattern (e.g. a global injury). To overcome this limitation, voxels, and in some embodiments all the voxels, within three short axis slice positions (apex, middle, and base) within the LV may be sampled and the intensity and x, y, and z coordinates of each voxel identified in 3-dimensional space (FIG. 6). FIG. 6 is a 3-Dimensional depiction of 3 short axis (basal, middle, and apical) planes of the left ventricle. […] During analysis, the image intensity of each voxel and the x, y, and z coordinates are recorded. […]
Correction for variations in the intensity of voxels in the images may also be identified by determining the intensity of voxels within a target region, typically, a 1 cm diameter circular ROI placed outside the heart. For each apical, middle, and basal slice, the number of pixels at a given intensity may be determined and the intensity from the ROI external to the heart subtracted from the pixels. In certain embodiments, for each slice, the mean intensity of all voxels and the peak voxel intensity in the highest 40% of the distribution may be determined (FIG. 6). […]

[2] = cited from earlier work

COc1cccc2c1C(=O)c1c(O)c3c(c(O)c1C2=O)C[C@@](O)(C(=O)CO)C[C@@H]3O[C@H]1C[C@H](N)[C@H](O)[C@H](C)O1 [doxorubicin]
mean intensity of contrast uptake in voxel histogram ([1]; doxorubicin cardiomyopathy patient, middle short axis view, 20 minutes after contrast, low in healthy patient, highest in infarct patient): intermediate | percentage of voxel intensities in aggregate histograms vs normal age matched controls ([1]; patients with cardiomyopathy due to doxorubicin, about 20 minutes after contrast): increased percentage of intensities | pattern of contrast uptake within the LV (serial auto-correlation) ([1]; patients with cardiomyopathy secondary to doxorubicin, p<0.001 vs myocardial infarction): random | patients experiencing toxicity who do so after receipt of approximately 100 mg/m^2 ([2]; approximately 100 mg/m^2, usually at T=1 month): about 85% | dose above which irreversible cardiomyopathy with serious congestive heart failure is a significant risk ([2]; patients, cumulative dose): 500-550 mg/m^2 | dose that precipitates congestive heart failure ([2]; report of 1487 patients studied over a seven year period): 30-880 mg/m^2
